# Tests used:
# [1] = Metabolite profiling and identification in plasma, urine and feces (part A); type: in vivo, human healthy male volunteers; details: male, human, in vivo; for half-life: apparent t½ of metabolite in plasma; for tmax: tmax of metabolite in plasma
# Experimental: Participants were hospitalized from day 1 to day 16 of the study, and further assessed on days 19, 22, and 25 (trial end). […] Pre-dose feces and urine samples were collected on day 1 and day 2, respectively. Urine was collected at 4- to 12-h intervals on day 1 and every 24 h thereafter up to day 16. Feces were collected every 24 h up to day 16. Provision was made to collect further samples up to day 39 if >1% of the administered dose was detectable in the total (urine and feces) excreta per day on two consecutive measurements.
# Metabolite profiling and structure elucidation in plasma, urine, and feces were performed at the Institute of Drug Metabolism and Pharmacokinetics, Merck KGaA, Grafing, Germany, using a radiometric UPLC method coupled to a high-resolution MS. For urine and feces, metabolites were identified in a single pooled sample per matrix and subject (urine pool of 4–120 h and feces pool of 0–192 h), that covered at least 90% of the total radioactivity of the respective matrix excreted. Intervals with low radioactivity were not used for the generation of the pooled samples to avoid dilution, and to increase the signal-to-noise ratio of the respective chromatograms.
# The metabolite structure elucidation was performed using the linear trap quadrupole Orbitrap XL hybrid Fourier transform (FT) MS (Thermo Scientific, Dreieich, Germany) coupled to a Waters Acquity UPLC system. Full-scan FT spectra were acquired for measurement of the masses of molecular ions of parent and metabolites. MS^2 fragmentation spectra were acquired after high-energy collisional dissociation of the appropriate molecular ions. Allocation and confirmation of the proposed metabolites to the radioactive peaks were performed using an API4000 QTrap (AB Sciex, Darmstadt, Germany) MS with simultaneous splitting using a fraction collection system (CTC HTS PAL Fraction Collector, Axel Semrau, Sprockhövel, Germany), and offline radioactive measurement using a Topcount NXT® microplate scintillation counter (PerkinElmer, Rodgau, Germany).
# The maximum plasma concentration (Cmax) and time to reach maximum concentration (tmax) were derived directly from the plasma concentration–time data. Lag time (tlag) was the time prior to the first measurable (non-zero) concentration. The area under the plasma concentration–time curve from 0 to t (last measurable concentration; AUC0–t) was calculated using a mixed log–linear trapezoidal method. Area under the plasma concentration–time curve until the last sampling time (AUCall), which corresponds to AUC0–240 h within the observation period, was used for metabolite calculations. Amounts excreted in urine, feces, and total (urine + feces) were calculated as the sum of amounts (concentration multiplied by volume) for each collection from time 0 to time t. The terminal rate constant (λz) was used to estimate the terminal half-life (t½) (ln 2/λz), and the area under the concentration–time curve from time 0 to infinity (AUC0–∞). Total body clearance (CL) and apparent body clearance (CL/f) were determined by dose/AUC0–∞, and total volume of distribution (Vz) and apparent volume of distribution (Vz/f) were calculated by dose/(AUC0–∞*λz) after IV and oral administration, respectively. Volume of distribution of the central compartment (Vc) was derived by dividing the dose by the initial drug plasma concentration after IV administration. Absolute bioavailability was calculated as F = (AUCoral/doseoral)/(AUCIV/doseIV) × 100. The ratios (%) AUCtepotinib or metabolite/AUCtotal radioactivity were calculated as a percentage of the molar AUCs.
# [2] = Protein binding and blood cell affinity of M506; type: in vitro ADME
smiles,measurement,setting,value
CN1CCC(COc2cnc(-c3cccc(Cn4nc(-c5cccc(C#N)c5)ccc4=O)c3)nc2)CC1=O (stereo not shown) [M506],half-life,[1]; median,3.83 days
same,half-life,[1]; range,2.75 to 6.04 days
same,% of AUCall of total 14C-radioactivity in plasma,[1]; po,41%
same,tmax,"[1]; po, median",24 h
same,tmax,"[1]; po, range",24 to 60 h
same,affinity for blood cells,[2],low affinity for blood cells
same,protein binding,[2],highly protein-bound

# Reference: publication PMC7497692 (Investigational New Drugs, 2020)
